Source: publication PMC8550792, “Evolution of kinase polypharmacology across HSP90 drug discovery” (Cell Chemical Biology, 2021)
Where two headings read alike, the source gives them in different places.

Experiments:
Assay in all cases: biochemical
Assay type in all cases: biochemical
[1] = biological target: T1, 382 unique human kinases (Homo sapiens, UniProt Q8NG66); conditions: NEK11, compound at 10 uM, duplicate values; for remaining activity at 10 µM: read-out: % Enzyme Activity (relative to DMSO controls)
T1 construct: purchased Reaction Biology (HotSpot contract assay)
T1 sequence (Q8NG66 1-645): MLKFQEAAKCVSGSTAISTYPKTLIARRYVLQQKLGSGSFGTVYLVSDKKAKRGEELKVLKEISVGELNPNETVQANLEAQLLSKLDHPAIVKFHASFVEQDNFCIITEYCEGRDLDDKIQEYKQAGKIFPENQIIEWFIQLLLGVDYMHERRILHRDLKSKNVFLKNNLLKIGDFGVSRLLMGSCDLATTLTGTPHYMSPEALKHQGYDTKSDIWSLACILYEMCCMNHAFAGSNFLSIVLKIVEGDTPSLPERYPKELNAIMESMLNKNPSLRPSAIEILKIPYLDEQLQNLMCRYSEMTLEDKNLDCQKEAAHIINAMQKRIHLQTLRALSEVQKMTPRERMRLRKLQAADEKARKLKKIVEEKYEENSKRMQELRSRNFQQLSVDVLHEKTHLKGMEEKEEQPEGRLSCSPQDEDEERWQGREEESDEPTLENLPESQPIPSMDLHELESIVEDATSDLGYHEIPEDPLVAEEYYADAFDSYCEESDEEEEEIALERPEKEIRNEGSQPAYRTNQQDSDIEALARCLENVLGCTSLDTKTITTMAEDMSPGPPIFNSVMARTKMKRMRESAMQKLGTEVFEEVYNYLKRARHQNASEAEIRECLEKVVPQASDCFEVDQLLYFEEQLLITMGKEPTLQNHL

[2] = biological target: T2, 382 unique human kinases (Homo sapiens, UniProt Q02763); conditions: for remaining activity at 10 µM: read-out: % Enzyme Activity (relative to DMSO controls)
T2 construct: purchased Reaction Biology (HotSpot contract assay)

[3] = biological target: T3, 382 unique human kinases (Homo sapiens, UniProt P00533, C797S); conditions: EGFR (C797S), 10 uM; for remaining activity at 10 µM: read-out: % Enzyme Activity (relative to DMSO controls)
T3 construct: purchased Reaction Biology (HotSpot contract assay)

[4] = biological target: T4, 382 unique human kinases (Homo sapiens, UniProt P21802, R612T); conditions: FGFR2 (R612T), 10 uM; for remaining activity at 10 µM: read-out: % Enzyme Activity (relative to DMSO controls)
T4 construct: purchased Reaction Biology (HotSpot contract assay)
T4 sequence (P21802 22-821 R612T): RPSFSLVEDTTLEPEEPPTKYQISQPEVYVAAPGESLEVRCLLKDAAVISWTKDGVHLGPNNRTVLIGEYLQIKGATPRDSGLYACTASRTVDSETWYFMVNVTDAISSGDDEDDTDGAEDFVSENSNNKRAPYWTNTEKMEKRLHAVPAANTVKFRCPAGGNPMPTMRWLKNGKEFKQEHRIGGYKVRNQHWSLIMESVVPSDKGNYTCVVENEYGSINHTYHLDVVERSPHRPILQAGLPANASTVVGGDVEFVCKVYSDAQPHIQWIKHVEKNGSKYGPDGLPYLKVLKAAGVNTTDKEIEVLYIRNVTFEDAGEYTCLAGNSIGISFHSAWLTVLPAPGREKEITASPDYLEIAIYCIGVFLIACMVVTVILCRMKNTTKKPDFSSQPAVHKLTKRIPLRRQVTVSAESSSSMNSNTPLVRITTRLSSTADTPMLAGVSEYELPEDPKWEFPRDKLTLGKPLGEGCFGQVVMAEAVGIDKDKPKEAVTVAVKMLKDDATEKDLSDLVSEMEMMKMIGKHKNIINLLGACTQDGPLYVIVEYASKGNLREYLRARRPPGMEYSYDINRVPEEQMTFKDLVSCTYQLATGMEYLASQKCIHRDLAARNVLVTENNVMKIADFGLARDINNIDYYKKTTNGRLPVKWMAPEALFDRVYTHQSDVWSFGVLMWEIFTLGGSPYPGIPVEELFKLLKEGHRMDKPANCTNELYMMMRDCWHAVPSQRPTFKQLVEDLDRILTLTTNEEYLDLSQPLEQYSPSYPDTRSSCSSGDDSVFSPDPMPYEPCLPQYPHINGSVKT

[5] = biological target: T5, 382 unique human kinases (Homo sapiens, UniProt O95382); conditions: MEKK6, 10 uM; for remaining activity at 10 µM: read-out: % Enzyme Activity (relative to DMSO controls)
T5 construct: purchased Reaction Biology (HotSpot contract assay)
T5 sequence (O95382 1-1288): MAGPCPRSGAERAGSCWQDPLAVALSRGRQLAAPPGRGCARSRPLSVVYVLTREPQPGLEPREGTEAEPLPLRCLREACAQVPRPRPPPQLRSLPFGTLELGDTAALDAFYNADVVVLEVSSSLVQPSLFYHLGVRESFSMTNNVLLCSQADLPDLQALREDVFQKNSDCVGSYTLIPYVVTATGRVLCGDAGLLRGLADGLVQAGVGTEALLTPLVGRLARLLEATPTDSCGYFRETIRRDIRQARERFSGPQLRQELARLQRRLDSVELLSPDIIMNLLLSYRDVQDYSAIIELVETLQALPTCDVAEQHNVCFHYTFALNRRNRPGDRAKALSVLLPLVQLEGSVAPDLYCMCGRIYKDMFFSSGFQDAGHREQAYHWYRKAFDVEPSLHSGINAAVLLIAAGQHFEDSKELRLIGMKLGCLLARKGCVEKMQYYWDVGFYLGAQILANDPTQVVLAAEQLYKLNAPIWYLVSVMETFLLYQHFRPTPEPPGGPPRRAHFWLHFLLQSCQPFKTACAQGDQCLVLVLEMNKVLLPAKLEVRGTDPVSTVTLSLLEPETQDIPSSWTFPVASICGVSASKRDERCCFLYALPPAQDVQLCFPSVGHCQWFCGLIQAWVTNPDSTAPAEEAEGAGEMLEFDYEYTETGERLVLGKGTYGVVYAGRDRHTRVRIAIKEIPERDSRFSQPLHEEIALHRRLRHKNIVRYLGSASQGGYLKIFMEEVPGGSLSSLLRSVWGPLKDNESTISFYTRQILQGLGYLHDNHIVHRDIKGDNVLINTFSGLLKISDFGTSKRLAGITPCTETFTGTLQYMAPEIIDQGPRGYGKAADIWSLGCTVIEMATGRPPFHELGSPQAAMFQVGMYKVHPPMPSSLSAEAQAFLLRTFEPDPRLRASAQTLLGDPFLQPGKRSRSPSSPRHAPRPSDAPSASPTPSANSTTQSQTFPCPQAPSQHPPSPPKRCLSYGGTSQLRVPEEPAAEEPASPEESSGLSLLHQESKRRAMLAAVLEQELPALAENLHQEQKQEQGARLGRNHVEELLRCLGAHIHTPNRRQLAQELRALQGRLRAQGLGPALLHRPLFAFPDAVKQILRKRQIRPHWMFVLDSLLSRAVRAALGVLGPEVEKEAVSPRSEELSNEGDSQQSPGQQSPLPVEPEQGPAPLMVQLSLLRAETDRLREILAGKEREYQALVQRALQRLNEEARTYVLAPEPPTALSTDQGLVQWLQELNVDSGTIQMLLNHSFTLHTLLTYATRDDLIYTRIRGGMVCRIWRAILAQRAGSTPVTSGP

[6] = biological target: T6, 382 unique human kinases (Homo sapiens, UniProt P57059); conditions: SIK1, [ATP] 30 µM
T6 construct: purchased Reaction Biology (HotSpot contract assay)
T6 sequence (P57059 whole entry): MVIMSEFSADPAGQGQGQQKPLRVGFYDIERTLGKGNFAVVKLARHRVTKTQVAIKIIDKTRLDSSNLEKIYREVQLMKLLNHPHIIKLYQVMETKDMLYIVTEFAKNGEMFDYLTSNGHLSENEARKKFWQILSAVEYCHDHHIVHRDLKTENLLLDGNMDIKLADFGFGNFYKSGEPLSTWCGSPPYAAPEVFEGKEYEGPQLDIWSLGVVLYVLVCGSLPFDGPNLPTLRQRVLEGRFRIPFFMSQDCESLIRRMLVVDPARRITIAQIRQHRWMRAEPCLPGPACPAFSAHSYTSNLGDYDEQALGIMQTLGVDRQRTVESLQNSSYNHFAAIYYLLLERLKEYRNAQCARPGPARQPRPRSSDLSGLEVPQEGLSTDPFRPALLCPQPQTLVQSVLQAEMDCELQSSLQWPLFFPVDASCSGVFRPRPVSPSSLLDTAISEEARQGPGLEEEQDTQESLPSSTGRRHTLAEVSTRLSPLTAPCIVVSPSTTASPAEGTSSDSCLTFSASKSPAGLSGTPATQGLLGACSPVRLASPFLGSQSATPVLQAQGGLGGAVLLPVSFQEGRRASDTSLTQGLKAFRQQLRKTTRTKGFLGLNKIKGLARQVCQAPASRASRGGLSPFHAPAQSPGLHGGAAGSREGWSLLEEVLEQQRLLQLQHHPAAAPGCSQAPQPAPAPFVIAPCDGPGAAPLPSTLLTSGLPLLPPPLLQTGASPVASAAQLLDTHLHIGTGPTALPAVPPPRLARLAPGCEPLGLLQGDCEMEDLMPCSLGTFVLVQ

[7] = biological target: T7, 382 unique human kinases (Homo sapiens, UniProt Q05513); conditions: PKCzeta, 10 uM; for remaining activity at 10 µM: read-out: % Enzyme Activity (relative to DMSO controls)
T7 construct: purchased Reaction Biology (HotSpot contract assay)
T7 sequence (Q05513 1-592): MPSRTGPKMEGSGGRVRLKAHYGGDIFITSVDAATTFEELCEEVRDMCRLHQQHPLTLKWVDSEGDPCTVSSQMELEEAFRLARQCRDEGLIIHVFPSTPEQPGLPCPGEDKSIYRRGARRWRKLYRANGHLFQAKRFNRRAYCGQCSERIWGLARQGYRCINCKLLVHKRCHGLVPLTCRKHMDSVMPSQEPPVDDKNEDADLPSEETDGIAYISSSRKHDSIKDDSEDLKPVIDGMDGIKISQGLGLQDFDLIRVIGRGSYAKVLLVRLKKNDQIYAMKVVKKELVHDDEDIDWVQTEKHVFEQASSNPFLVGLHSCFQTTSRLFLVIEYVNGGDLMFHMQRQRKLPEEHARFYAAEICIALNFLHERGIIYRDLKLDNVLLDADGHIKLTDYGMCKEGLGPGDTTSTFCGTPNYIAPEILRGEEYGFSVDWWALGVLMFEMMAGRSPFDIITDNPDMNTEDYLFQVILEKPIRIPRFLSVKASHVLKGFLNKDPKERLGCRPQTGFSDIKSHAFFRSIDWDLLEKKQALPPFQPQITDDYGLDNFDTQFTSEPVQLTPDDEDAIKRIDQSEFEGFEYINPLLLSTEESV

[8] = TIE2/TEK, compound at 10 uM, duplicate values
[9] = compound 10 uM, read-out: % Enzyme Activity (relative to DMSO controls)

| Structure (SMILES) | remaining activity at 10 µM [1] [%] | remaining activity at 10 µM ([2]; TIE2 (A1124V), 10 uM) [%] | remaining activity at 10 µM [2, 8] [%] | remaining activity at 10 µM [3] [%] | remaining activity at 10 µM [4] [%] | remaining activity at 10 µM [5] [%] | remaining activity at 1 µM ([6]; compound 1 uM, read-out: % Enzyme Activity (relative to DMSO controls)) [%] | remaining activity at 10 µM [6, 9] [%] | remaining activity at 10 µM [7] [%] | % Enzyme Activity (relative to DMSO controls) [1] [%] | % Enzyme Activity (relative to DMSO controls) ([2]; TIE2 (A1124V), 10 uM) [%] | % Enzyme Activity (relative to DMSO controls) [2, 8] [%] | % Enzyme Activity (relative to DMSO controls) [3] [%] | % Enzyme Activity (relative to DMSO controls) [4] [%] | % Enzyme Activity (relative to DMSO controls) [5] [%] | % Enzyme Activity (relative to DMSO controls) ([6]; compound 10 uM) [%] | % Enzyme Activity (relative to DMSO controls) [7] [%] |
| --- | --- | --- | --- | --- | --- | --- | --- | --- | --- | --- | --- | --- | --- | --- | --- | --- | --- |
| CC(C)c1cc(-c2n[nH]c(=O)n2-c2ccc3c(ccn3C)c2)c(O)cc1O [Ganetespib (STA9090)] | 117 | 71 | 101 | 70.9 | 68.6 | – | – | – | – | – | – | – | – | – | – | – | – |
| CC(C)c1cc(-c2n[nH]c(=O)n2-c2ccc3c(ccn3C)c2)c(O)cc1O [Ganetespib] | – | – | – | – | – | 94.2 | 75.9 | 11.4 | 92.3 | – | – | – | – | – | – | – | – |
| CCNC(=O)c1noc(-c2cc(C(C)C)c(O)cc2O)c1-c1ccc(CN2CCOCC2)cc1 [Luminespib (AUY-922)] | 102 | 96.5 | 108 | 103 | 114 | – | – | – | – | 100.52 | 95.16 | 106.94 | 99.85 | 112.07 | – | – | – |
| CCNC(=O)c1noc(-c2cc(C(C)C)c(O)cc2O)c1-c1ccc(CN2CCOCC2)cc1 [Luminespib] | – | – | – | – | – | 96 | – | 80.3 | 102 | – | – | – | – | – | 94.49 | 79.13 | 101.96 |
